Reference: patent US6166062A, “Pharmaceutical compositions containing phospholipase inhibitor” (Shionogi & Co., Ltd., priority 1999, dated 2000)

Columns and labels:
[1] = tested on: human non-pancreatic secretory phospholipase A2 (sPLA2); conditions: as disclosed in JP-A 7-285933, EP 0 675 110 A1, U.S. Pat. No. 5,654,326; cited from earlier work
[2] = solubility of Compound (I) (statement); type: physicochemical
Text: Storage of a pharmaceutical composition of Compound (I) prepared by known methods may lead to degradation of its content and a coloring and a worsening of its reconstitution properties, especially in the case of injections to be dissolved before use. It is difficult to provide a pharmaceutical composition of Compound (I) which has good stability and a good reconstitution property, especially for injections of Compound (I) to be dissolved before use, after long storage at room temperature.

[3] = collapse temperature of frozen solutions (freeze dry microscopy); type: physicochemical
Text: The term, "collapse temperature," describes the glass transition temperature for amorphous solids or eutectic temperature for crystalline solids. Collapse temperature is that temperature above which the product is not completely frozen. Freeze dry microscoscropy enables measurement of the temperature at which frozen solutions begin to lose their rigid structure during a sublimation process.

## CCc1c(C(=O)C(N)=O)c2c(OCC(=O)[O-])cccc2n1Cc1ccccc1.[Na+] [Compound (I), sodium [[3-(2-amino-1,2-dioxoethyl)-2-ethyl-1-(phenylmethyl)-1H-indol-4-yl]oxy]acetate]
[1]
  inhibitor against human non-pancreatic secretory phospholipase A2: inhibitor
[2]
  solubility: sparingly soluble
[3]; after annealing
  collapse temperature: about -13 °C
[3]; before annealing
  collapse temperature: about -33 °C
